Measured values taken from patent US20230027072A1, “IMPROVED METHODS, KITS, COMPOSITIONS AND DOSING REGIMENS FOR THE USE OF HETEROCYCLIC INHIBITORS OF ERK1 AND ERK2” (Asana Biosciences, LLC, priority 2019, published 2023).
pIC50: −log10 of the molar value.

Experiments:
[1] = target: T1, ERK1 (Homo sapiens, UniProt P27361); test: ERK1 HTRF (biochemical) assay
T1 construct: purchased Jubilant Biosys
Experimental: (§1) ERK1 and ERK2 HTRF (Biochemical) Assays
(§2) The assays described below employed a homogeneous time resolved fluorescence (HTRF) technique. The compounds were serially diluted by half-log with concentrations ranging from 0.0005 to 10 uM in the assay buffer (50 mM Tris pH-7.5, 1 mM EGTA, 2 mM DTT, 10 mM MgCl2, 0.1% Tween-20) and 20 uL of substrate-ATP mix [1 uM Biotin—LC-Myelin Basic Protein (MBP) derivatized Peptide (Anaspec)-24 uM ATP (Sigma)] was added to each well of the assay plate. Then 10 uL of enzyme mix [25 nM ERK1 or ERK2 (Jubilant Biosys) in assay buffer] was added to each well. The plate was incubated at room temperature for 60 min with shaking. The HTRF mix [625 nM LANCE® Ultra Europium-anti-phospho-MBP (Perkin Elmer) and 2 nM Phycolink® Streptavidin-Allophycocyanin (SA-APC) (Prozyme) in HTRF buffer (50 mM Tris-HCl pH-7.5, 100 mM NaCl, 0.1% BSA, 0.05% Tween20, 0.5 mM EDTA)] was prepared and 75 uL of this mix was added to the HTRF plate. After incubation for 60 min at room temperature, 10 uL of the reaction mixture was transferred to the HTRF assay plate and incubated for 45 min at room temperature with shaking. Plate was read using Pherastar in HTRF mode (excitation 337 nm, emission 665 & 620 nm). The IC50 values (half maximal inhibitory concentration values) were subsequently determined using a sigmoidal dose-response curve (variable slope) in GraphPad Prism® 5 software.

[2] = target: T2, ERK2 (Homo sapiens, UniProt P28482); test: ERK2 HTRF (biochemical) assay
T2 construct: purchased Jubilant Biosys
T2 sequence (P28482 whole entry): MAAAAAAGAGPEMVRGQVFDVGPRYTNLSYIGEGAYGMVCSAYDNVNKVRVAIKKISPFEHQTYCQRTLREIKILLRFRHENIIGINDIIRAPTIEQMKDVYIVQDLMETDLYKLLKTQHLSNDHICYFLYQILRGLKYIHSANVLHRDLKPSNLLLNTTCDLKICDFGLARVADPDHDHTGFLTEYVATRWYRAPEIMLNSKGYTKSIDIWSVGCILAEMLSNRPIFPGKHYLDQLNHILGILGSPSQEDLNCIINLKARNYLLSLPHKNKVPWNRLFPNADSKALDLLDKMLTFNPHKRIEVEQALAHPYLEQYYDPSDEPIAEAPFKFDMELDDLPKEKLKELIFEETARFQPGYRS
Experimental: as §1, §2

[3] = tested on: HT-29 (colorectal carcinoma, B-RafV600E) cells; test: Cell proliferation (Alamar Blue) assay, HT-29; format: cell-based, human; conditions: Homo sapiens, HT-29, 72 h, read-out: Cell Proliferation Assay HT29 IC50
Experimental: (§3) Cell Proliferation (Alamar Blue) Assay
(§4) HT-29 (colorectal carcinoma, B-RafV600E), HCT116 (colorectal carcinoma, K Ras G13D), A375 (melanoma, B-RafV600E) and SK-Mel2 (melanoma, NRAS Q61R) cells (obtained from ATCC, USA) were seeded (5000 cells/well) in 96-well tissue culture plate and incubated at 37° C./5% CO2 for 16-24 hours. The cells were then treated with compounds, at concentrations typically from 0.0005 to 10 uM prepared in 3-fold serial dilutions. The plates were then incubated for 72 h at 37° C./5% CO2 in a moist environment. Then Alamar Blue™ reagent (final concentration 1×) was added to each well and incubated for 1-3 h at 37° C./5% CO2. The plates were read on fluorescence reader at 540 nm excitation and 590 nm emission wavelengths. The IC50 values were subsequently determined using a sigmoidal dose-response curve (variable slope) using GraphPad Prism® 5 software. Compounds of the present disclosure caused inhibition of HT-29, HCT116, A375 and SK-Mel2 cell proliferation as determined in these assays.

[4] = tested on: HCT116 (colorectal carcinoma, K Ras G13D) cells; test: Cell proliferation (Alamar Blue) assay, HCT116; format: cell-based, human; conditions: Homo sapiens, HCT-116, 72 h
Experimental: as §3, §4

[5] = tested on: phosphorylation of RSK1(S380) (the downstream target of ERK1/2); test: Mechanistic (phospho-RSK1(S380) ELISA) assay in HT-29 cells; format: cell-based, human; conditions: Homo sapiens, HT-29, 2 h, 2 h treatment, read-out: Mechanistic Cell Assay RSK1 Phos HT29 IC50
Experimental: Mechanistic (Phospho-RSK1(5380) ELISA) Assay
HT-29 cells (colorectal carcinoma, B-RafV600E); obtained from ATCC, USA) were seeded (60,000 cells/well) in a 96-well plate and incubated at 37° C./5% CO2 overnight and then treated with desired compound dilutions for 2 h. Medium was removed and cells were rinsed once with ice-cold 1×PBS, then 0.070 mL ice-cold 1× cell lysis buffer containing 1 mM PMSF was added to each well and the plate was incubated on a shaker for 2 h and 30 min at 4° C. The plate was then centrifuged for 20 min (×4000 rpm) at 4° C. and the supernatant was transferred to a new plate. Cell lysates were diluted with sample diluent at a ratio of 1:1. The ELISA was then carried out following the manufacturer's protocol (PathScan® phospho-RSK1(Ser380) Sandwich ELISA Kit, Cell Signaling Technologies). The plate was read at 450 nm within 30 min after adding STOP solution. The IC50 values were subsequently determined using a sigmoidal dose-response curve (variable slope) in GraphPad Prism® 5 software. Compounds of the present disclosure inhibited phosphorylation of RSK1(5380) (the downstream target of ERK1/2) as determined in this assay.

T1 sequence (P27361 whole entry): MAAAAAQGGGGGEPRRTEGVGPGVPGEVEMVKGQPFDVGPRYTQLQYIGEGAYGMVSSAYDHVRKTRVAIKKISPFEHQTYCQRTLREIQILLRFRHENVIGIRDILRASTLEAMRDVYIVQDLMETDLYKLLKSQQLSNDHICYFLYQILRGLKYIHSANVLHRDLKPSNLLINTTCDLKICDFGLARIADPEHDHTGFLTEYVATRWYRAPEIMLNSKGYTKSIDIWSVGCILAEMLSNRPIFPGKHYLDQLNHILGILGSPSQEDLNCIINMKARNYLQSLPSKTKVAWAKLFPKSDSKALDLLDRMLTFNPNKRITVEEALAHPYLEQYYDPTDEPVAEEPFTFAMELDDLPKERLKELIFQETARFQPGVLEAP

Row | pIC50 [1] | pIC50 [2] | pIC50 [3] | pIC50 [4] | pIC50 [5] | Structure (SMILES)
1 | 5.60 to 6.30 | 6.30 to 7.00 |  |  |  | Cc1cnc(Nc2ccc(Oc3ccccc3)cc2)nc1-n1cnc(C(=O)N[C@H](CO)c2cccc(Cl)c2)c1 [Example 250, N-(1-(3-chlorophenyl)-2-hydroxyethyl)-1-(5-methyl-2-((4-phenoxyphenyl)-amino)pyrimidin-4-yl)-1H-imidazole-4-carboxamide]
2 | ≥ 7.30 | ≥ 7.30 | ≥ 7.00 | ≥ 7.00 | ≥ 7.00 | Cc1cnc(N[C@H]2CCOC2)nc1-n1cnc(C(=O)N[C@H](CN)c2cc(F)cc(Cl)c2)c1 [Example 282, N-(2-amino-1-(3-chloro-5-fluorophenyl)ethyl)-1-(5-methyl-2-(((S)-tetrahydrofuran-3-yl)amino)pyrimidin-4-yl)-1H-imidazole-4-carboxamide]
3 | ≥ 7.30 | ≥ 7.30 |  | < 5.60 | 5.60 to 6.30 | Cc1cnc(NC(C)C2CCOCC2)nc1-n1cnc(C(=O)N[C@H](CO)c2cccc(Cl)c2)c1 (stereo partly shown) [Example 239]
4 | ≥ 7.30 | ≥ 7.30 | < 5.60 | < 5.60 | 6.60 to 7.00 | CC[C@@H](CO)Nc1cc(-n2cnc(C(=O)NC(CO)c3cccc(Cl)c3)c2)ccn1 (stereo partly drawn) [Compound 105, N-(1-(3-chlorophenyl)-2-hydroxyethyl)-1-(2-(((S)-1-hydroxybutan-2-yl)-amino)pyridin-4-yl)-1H-imidazole-4-carboxamide]
